Results as given in the supplement of paper PMC11208160.

Test: recombinant UMI read abundance after kanamycin selection (control-corrected) (log10(CPM+1)); higher = more efficient recombination; extreme values may be limits of the assay; sequences stand for … in AGTGCAGAGAAAATCGGCCAGTTTTCTCTGCCTGCAGTCCGCATGCCGTGGGACCCCTTGGGTTCTAACCTGTTGCCTAGATTTATGCAGCGGACTGCCTTTCTCCCAAAGTGATAAACCGG…AGGTTGGTTTCACT; site = the 11-nt donor
In short: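 Under IPTG (0.07 mM) plus kanamycin, or without selection, Escherichia coli carrying a UMI-tagged donor and donor-binding-loop pair library and a target plasmid for the IS621 bridge recombinase were plated in two replicates. Recombinant UMIs were PCR-amplified across the donor–target junction and sequenced. Counts were converted to CPM, averaged over replicates, scaled by control-derived factors and reported as log10(CPM+1).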
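Further: IS621 bridge recombinase in Escherichia coli cells against a fixed T5 target plasmid.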

Row | Sequence | recombinant UMI read abundance (log10)
1 | CGCCGTACATGGACCGGTTTTCCCGGTAATCCGTATTTGTT (site CGCCGTACTAC) | 0.00659
2 | CGCCGTACATGGACCGGTTTTCCCGGTAATCCGTATTTGTT (site CGCCGTACTAG) | 0.486
3 | CGCCGTACATGGACCGGTTTTCCCGGTAATCCGTATTTGTT (site CGCCGTACTAT) | 0.0268
4 | CGCCGTGCATGGACCGGTTTTCCCGGTAATCCGTATTTGCT (site CGCCGTACTAG) | 1.29
5 | CGCCGTGCATGGACCGGTTTTCCCGGTAATCCGTATTTGCT (site CGCCGTCCTAG) | 0.00563
6 | CGCCGTGCATGGACCGGTTTTCCCGGTAATCCGTATTTGCT (site CGCCGTGCTAG) | 1.97
7 | CGCCGTGCATGGACCGGTTTTCCCGGTAATCCGTATTTGCT (site CGCCGTTCTAG) | 0.0147
8 | CGCCGTTCATGGACCGGTTTTCCCGGTAATCCGTATTTGCT (site CGCCGTACTAG) | 0
9 | CGCCGTTCATGGACCGGTTTTCCCGGTAATCCGTATTTGCT (site CGCCGTCCTAG) | 0.00374
10 | CGCCGTTCATGGACCGGTTTTCCCGGTAATCCGTATTTGCT (site CGCCGTGCTAG) | 0
11 | CGCCGTTCATGGACCGGTTTTCCCGGTAATCCGTATTTGCT (site CGCCGTTCTAG) | 2.41
12 | CGCCTGACATGGACCGGTTTTCCCGGTAATCCGTATTTGAG (site CGCCTGACTCT) | 0.947
13 | CGCGAGTCATGGACCGGTTTTCCCGGTAATCCGTATTTGCC (site CGAGAGTCTGG) | 0
14 | CGCGAGTCATGGACCGGTTTTCCCGGTAATCCGTATTTGCC (site CGCGAGTCTGG) | 2.43
15 | CGCGAGTCATGGACCGGTTTTCCCGGTAATCCGTATTTGCC (site CGGGAGTCTGG) | 0
16 | CGCGAGTCATGGACCGGTTTTCCCGGTAATCCGTATTTGCC (site CGTGAGTCTGG) | 0.681
17 | CGCGAGTCATGGACCGGTTTTCCCGGTAATCCGTATTTGTC (site CGCGAGTCTGA) | 2.8
18 | CGCGGGACATGGACCGGTTTTCCCGGTAATCCGTATTTGGC (site CGCGGGACTGC) | 2.25
19 | CGCTAGACATGGACCGGTTTTCCCGGTAATCCGTATTTGAG (site CGATAGACTCT) | 0.0154
20 | CGCTAGACATGGACCGGTTTTCCCGGTAATCCGTATTTGAG (site CGCTAGACTCT) | 1.64
21 | CGCTAGACATGGACCGGTTTTCCCGGTAATCCGTATTTGAG (site CGGTAGACTCT) | 0.181
22 | CGCTAGACATGGACCGGTTTTCCCGGTAATCCGTATTTGAG (site CGTTAGACTCT) | 0.00455
23 | CGCTCCTCATGGACCGGTTTTCCCGGTAATCCGTATTTGCC (site CACTCCTCTGG) | 2.35
24 | CGCTCCTCATGGACCGGTTTTCCCGGTAATCCGTATTTGCC (site CCCTCCTCTGG) | 1.72
25 | CGCTCCTCATGGACCGGTTTTCCCGGTAATCCGTATTTGCC (site CGCTCCTCTGG) | 3.14

Row | Sequence | recombinant UMI read abundance (log10)
26 | CGCTCCTCATGGACCGGTTTTCCCGGTAATCCGTATTTGCC (site CTCTCCTCTGG) | 2.25
27 | CGCTGTCCATGGACCGGTTTTCCCGGTAATCCGTATTTGCA (site CGCTGTCCTTG) | 0.989
28 | CGCTGTGCATGGACCGGTTTTCCCGGTAATCCGTATTTGCA (site CGCTGTGCTTG) | 1.87
29 | CGGAACACATGGACCGGTTTTCCCGGTAATCCGTATTTGCA (site AGGAAGACTTG) | 0.0118
30 | CGGAACACATGGACCGGTTTTCCCGGTAATCCGTATTTGCA (site CGGAACACTTG) | 2.5
31 | CGGAAGACATGGACCGGTTTTCCCGGTAATCCGTATTTGCC (site AGGAAGACTTG) | 0
32 | CGGAAGACATGGACCGGTTTTCCCGGTAATCCGTATTTGCC (site CGGAAGACTGG) | 2.59
33 | CGGAAGCCATGGACCGGTTTTCCCGGTAATCCGTATTTGTC (site CGGAAGCCTGA) | 0
34 | CGGAAGCCATGGACCGGTTTTCCCGGTAATCCGTATTTGTC (site CGGAATCCTAA) | 0.00548
35 | CGGAATACATGGACCGGTTTTCCCGGTAATCCGTATTTGTT (site CGGAATACTAA) | 2.18
36 | CGGAATACATGGACCGGTTTTCCCGGTAATCCGTATTTGTT (site CGGAATCCTAA) | 0
37 | CGGAATACATGGACCGGTTTTCCCGGTAATCCGTATTTGTT (site CGGAATGCTAA) | 0
38 | CGGAATACATGGACCGGTTTTCCCGGTAATCCGTATTTGTT (site CGGAATTCTAA) | 0
39 | CGGAATCCATGGACCGGTTTTCCCGGTAATCCGTATTTGTG (site CGGAATCCTAA) | 0
40 | CGGAATCCATGGACCGGTTTTCCCGGTAATCCGTATTTGTG (site CGGAATCCTCA) | 0.656
41 | CGGAATCCATGGACCGGTTTTCCCGGTAATCCGTATTTGTG (site CGGAATCCTGA) | 0
42 | CGGAATCCATGGACCGGTTTTCCCGGTAATCCGTATTTGTG (site CGGAATCCTTA) | 0
43 | CGGAATCCATGGACCGGTTTTCCCGGTAATCCGTATTTGTT (site ACGAATCCTAA) | 0.0109
44 | CGGAATCCATGGACCGGTTTTCCCGGTAATCCGTATTTGTT (site AGAAATCCTAA) | 0
45 | CGGAATCCATGGACCGGTTTTCCCGGTAATCCGTATTTGTT (site AGGAAACCTAA) | 0
46 | CGGAATCCATGGACCGGTTTTCCCGGTAATCCGTATTTGTT (site AGGAATCCTAA) | 0
47 | CGGAATCCATGGACCGGTTTTCCCGGTAATCCGTATTTGTT (site AGGAATCCTAG) | 0
48 | CGGAATCCATGGACCGGTTTTCCCGGTAATCCGTATTTGTT (site AGGAATCCTTA) | 0
49 | CGGAATCCATGGACCGGTTTTCCCGGTAATCCGTATTTGTT (site AGGAATTCTAA) | 0
50 | CGGAATCCATGGACCGGTTTTCCCGGTAATCCGTATTTGTT (site AGGATTCCTAA) | 0

Row | Sequence | recombinant UMI read abundance (log10)
51 | CGGAATCCATGGACCGGTTTTCCCGGTAATCCGTATTTGTT (site AGGGATCCTAA) | 0.0088
52 | CGGAATCCATGGACCGGTTTTCCCGGTAATCCGTATTTGTT (site CAGAAGCCTAA) | 0.0058
53 | CGGAATCCATGGACCGGTTTTCCCGGTAATCCGTATTTGTT (site CAGAATACTAA) | 0
54 | CGGAATCCATGGACCGGTTTTCCCGGTAATCCGTATTTGTT (site CAGAATCCTAA) | 0
55 | CGGAATCCATGGACCGGTTTTCCCGGTAATCCGTATTTGTT (site CAGAATCCTAT) | 0
56 | CGGAATCCATGGACCGGTTTTCCCGGTAATCCGTATTTGTT (site CAGAATCCTGA) | 0
57 | CGGAATCCATGGACCGGTTTTCCCGGTAATCCGTATTTGTT (site CAGAGTCCTAA) | 0.0165
58 | CGGAATCCATGGACCGGTTTTCCCGGTAATCCGTATTTGTT (site CAGTATCCTAA) | 0.0125
59 | CGGAATCCATGGACCGGTTTTCCCGGTAATCCGTATTTGTT (site CATAATCCTAA) | 0
60 | CGGAATCCATGGACCGGTTTTCCCGGTAATCCGTATTTGTT (site CCAAATCCTAA) | 0
61 | CGGAATCCATGGACCGGTTTTCCCGGTAATCCGTATTTGTT (site CCGAAACCTAA) | 0.0076
62 | CGGAATCCATGGACCGGTTTTCCCGGTAATCCGTATTTGTT (site CCGAATCCTAA) | 0.00308
63 | CGGAATCCATGGACCGGTTTTCCCGGTAATCCGTATTTGTT (site CCGAATCCTAG) | 0
64 | CGGAATCCATGGACCGGTTTTCCCGGTAATCCGTATTTGTT (site CCGAATCCTTA) | 0
65 | CGGAATCCATGGACCGGTTTTCCCGGTAATCCGTATTTGTT (site CCGAATTCTAA) | 0
66 | CGGAATCCATGGACCGGTTTTCCCGGTAATCCGTATTTGTT (site CCGATTCCTAA) | 0.00402
67 | CGGAATCCATGGACCGGTTTTCCCGGTAATCCGTATTTGTT (site CCGGATCCTAA) | 0
68 | CGGAATCCATGGACCGGTTTTCCCGGTAATCCGTATTTGTT (site CGAAAACCTAA) | 0
69 | CGGAATCCATGGACCGGTTTTCCCGGTAATCCGTATTTGTT (site CGAAATCCTAA) | 0
70 | CGGAATCCATGGACCGGTTTTCCCGGTAATCCGTATTTGTT (site CGAAATCCTAG) | 0
71 | CGGAATCCATGGACCGGTTTTCCCGGTAATCCGTATTTGTT (site CGAAATCCTTA) | 0.014
72 | CGGAATCCATGGACCGGTTTTCCCGGTAATCCGTATTTGTT (site CGAAATTCTAA) | 0
73 | CGGAATCCATGGACCGGTTTTCCCGGTAATCCGTATTTGTT (site CGAATTCCTAA) | 0
74 | CGGAATCCATGGACCGGTTTTCCCGGTAATCCGTATTTGTT (site CGAGATCCTAA) | 0
75 | CGGAATCCATGGACCGGTTTTCCCGGTAATCCGTATTTGTT (site CGCAACCCTAA) | 0.00816
